Entries after “also recorded” stand apart in the source; their conditions may differ. Residues, ends and D or L forms follow the SMILES beside them. *: point of attachment. Cbz = O=C(OCc1ccccc1)*; CH2F = FC*
Experiments:
T98G cells = assay: Migration assay (collagen-coated transwell / two dimensional migration assay); assay type: cell-based, human; details: T98G cells stimulated with α-Apo-1 (2 μg/ml) or LZ-CD95L (5 ng/ml)
Description: Migration of the glioma cells in vitro was measured by the migration through Collagen 1-coated (Chemicon) transwell inserts (Falcon). 5×10^4 cells were plated in 200 μl medium onto collagen-coated (50 μg/ml) transwell inserts with 8 μm pore size. Cells were either γ-irradiated before plating or treated after plating with α-Apo1 (2 μg/ml or 0.1 μg/ml+ProteinA for cross linking), LZ-CD95L (5 ng/ml), Nok1 (50 ng)/LZ-CD95L (5 ng/ml), Nok1 (50 ng) LZ-Supernatant (SN, 5 ng/ml), CD95L (10 ng/ml) and CD95L-T34. Preferably 24 h after plating the cells were starved with basal DMEM for additional 24 h before they were treated. The number of completely migrated cells was counted at 12 h, 24 h and 36 h after treatment. In every experiment triplicates were counted for each treatment.
2.5×10^5 cells were plated onto 6 cm culture dishes 12 h prior to irradiation. […]
Knockdown experiments were performed by transient transfection with Lipofectamine 2000™ (Invitrogen Life Technologies) following the instruction manual. […] After transient transfection with the different siRNAs cells were cultured for 72 h before treated with CD95LT4 (10 ng/ml and 20 ng/ml), migration was analyzed 24 h after treatment with a two dimensional migration assay. The knockdown was controlled by quantitative real-time PCR and FACS. […] Migration was measured 24 h after treatment in a two dimensional migration assay.

GSK3β = assay: Phosphorylation (inhibition) of GSK3β, Western Blot; assay type: cell-based, human; details: T98G cells, pre-treatment before CD95 stimulation
Description: The MAPK inhibitor, PD98059 (25 μM), the PI3K inhibitor […] (25 μM) and the pancaspase inhibitor zVAD-fmk (40 μM) were purchased from Calbiochem. The ILK inhibitor (20 μM) was kindly provided from S. Dedhar. Cells were preincubated with inhibitors 30 minutes (LY 290059 and zVAD-fmk) prior to treatment with either CD95L-T4 or αApo-1. Generation of Leucinezipper-CD95L (LZCD95L) was performed as previously described^41. The blocking agents (zVAD-fmk, PD98059, LY 290059 and KP-SD1) were given 30 minutes before treatment with LZ-CD95L or αApo-1. Cells were lysed for further biochemical analysis. Protein extraction and immunoblotting was performed as previously described^41.

[1] = system: Jurkat A3 permanent human T-cell line; assay: Jurkat apoptosis assay (Caspase 3/7 activity); assay type: cell-based; details: Jurkat cells, 250 ng/ml CD95L-T4, 30 min preincubation

## COc1cccc(-c2cc(=O)c3ccccc3o2)c1N [PD98059]
T98G cells
  blockade of CD95-induced migration: did not interfere with CD95-induced migration
T98G cells; listed as PD 98059
  blockade of CD95-induced migration: did not interfere with the CD95-induced migration

## COC(=O)C[C@H](NC(=O)[C@H](C)NC(=O)[C@@H](NC(=O)OCc1ccccc1)C(C)C)C(=O)CF [zVAD-fmk] (Cbz-Val-Ala-Asp(OMe)-CH2F)
GSK3β
  blockade of CD95-induced GSK3β phosphorylation/inhibition: did not prevent GSK3β phosphorylation; also recorded: did not interfere with α-Apo-1 (2 μg/ml)-induced inhibition of GSK3β
GSK3β; listed as zVAD.fmk
  blockade of CD95-induced GSK3β phosphorylation/inhibition: did not block ser9 phosphorylation of GSK3β

## APG101: fusion protein of the extracellular domain of the human CD95-receptor with human Fc, SEQ ID NO:1
[1]
  antagonism of CD95L-T4-induced apoptosis: antagonizes the apoptosis inducing effect of CD95L; also recorded: antagonized by APG101 in a dose dependent manner
[1]; listed as AP-G101
  antagonism of CD95L-T4-induced apoptosis: antagonizes the apoptosis inducing activity of CD95L-T4
